“And” between values parts separate entries of the source, which are not always exact repeats. Equal values may be shown once. Inconclusive results and toxic doses are left out.
Tested on: P388 leukemia ip, CD2F1 mice, survival T/C
Test: NCI In Vivo Anticancer Drug Screen. Data for tumor model P388 Leukemia (intraperitoneal) in CD2F1 (CDF1) mice
Conditions: endpoint: median survival time, higher = longer survival
In short: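 Mice carrying the transplanted tumor received test compound or vehicle. Survival was recorded in each group, and the value is the treated-group measurement divided by that of the vehicle-treated control group.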

[1] = dose: 60.0 mg/kg/injection, schedule: Q01DX005 (ip), vehicle: saline with Tween-80
[2] = dose: 60.0 mg/kg/injection, schedule: Q01DX005 (ip), vehicle: saline
[3] = dose: 120.0 mg/kg/injection, schedule: Q01DX005 (ip), vehicle: saline
[4] = dose: 50.0 mg/kg/injection, schedule: Q01DX005 (ip), vehicle: Klucel (hydroxypropylcellulose) (HPC)
[5] = dose: 100.0 mg/kg/injection, schedule: Q01DX005 (ip), vehicle: Klucel (hydroxypropylcellulose) (HPC)
[6] = dose: 200.0 mg/kg/injection, schedule: Q01DX005 (ip), vehicle: Klucel (hydroxypropylcellulose) (HPC)
[7] = dose: 50.0 mg/kg/injection, schedule: Q01DX005 (ip), vehicle: saline with Tween-80
[8] = dose: 100.0 mg/kg/injection, schedule: Q01DX005 (ip), vehicle: saline with Tween-80
[9] = dose: 120.0 mg/kg/injection, schedule: Q01DX005 (ip), vehicle: saline with Tween-80
[10] = dose: 240.0 mg/kg/injection, schedule: Q01DX005 (ip), vehicle: saline with Tween-80
[11] = dose: 50.0 mg/kg/injection, schedule: Q01DX009 (ip), vehicle: saline with Tween-80
[12] = dose: 100.0 mg/kg/injection, schedule: Q01DX009 (ip), vehicle: saline with Tween-80
[13] = dose: 50.0 mg/kg/injection, schedule: Q01DX005 (ip), vehicle: saline
[14] = dose: 100.0 mg/kg/injection, schedule: Q01DX005 (ip), vehicle: saline
[15] = dose: 200.0 mg/kg/injection, schedule: Q01DX005 (ip), vehicle: saline
[16] = dose: 50.0 mg/kg/injection, schedule: Q01DX009 (ip), vehicle: Klucel (hydroxypropylcellulose) (HPC)

For CCC(c1ccc(OC(=O)Cc2ccc(N(CCCl)CCCl)cc2)cc1)C(CC)c1ccc(OC(=O)Cc2ccc(N(CCCl)CCCl)cc2)cc1 (stereo not given), the T/C (dose: 80.0 mg/kg/injection, schedule: Q01DX009 (ip), vehicle: saline with Tween-80) was 92 % of control, the T/C (dose: 120.0 mg/kg/injection, schedule: Q01DX009 (ip), vehicle: saline with Tween-80) was 93 % of control and the T/C (dose: 180.0 mg/kg/injection, schedule: Q01DX009 (ip), vehicle: saline with Tween-80) was 89 % of control. For the same molecule, the T/C (dose: 270.0 mg/kg/injection, schedule: Q01DX009 (ip), vehicle: saline with Tween-80) was 90 % of control and the T/C (dose: 405.0 mg/kg/injection, schedule: Q01DX009 (ip), vehicle: saline with Tween-80) was 92 % of control.

COc1cc(C2CC(C)(OC)Oc3cc4c(cc32)OCO4)cc(OC)c1O (stereo not given) was tested, and the T/C (dose: 15.0 mg/kg/injection, schedule: Q01DX005 (ip), vehicle: saline with Tween-80) was 90 % of control, the T/C (dose: 30.0 mg/kg/injection, schedule: Q01DX005 (ip), vehicle: saline with Tween-80) was 88 % of control and the T/C [1] was 89 % of control.

For Cc1cccc(NC(=O)Nc2ccc(F)cc2)n1, the T/C (dose: 60.0 mg/kg/injection, schedule: Q01DX005 (ip), vehicle: Klucel (hydroxypropylcellulose) (HPC)) was 101 % of control, the T/C (dose: 120.0 mg/kg/injection, schedule: Q01DX005 (ip), vehicle: Klucel (hydroxypropylcellulose) (HPC)) was 96 % of control and the T/C (dose: 240.0 mg/kg/injection, schedule: Q01DX005 (ip), vehicle: Klucel (hydroxypropylcellulose) (HPC)) was 100 % of control.

With CC/C(=N/N(C)C)C(=O)O the T/C [2] was 102 % of control, the T/C [3] was 105 % of control and the T/C (dose: 240.0 mg/kg/injection, schedule: Q01DX005 (ip), vehicle: saline) was 98 % of control.

CCC(C)(C)N=C(Nc1cccnc1)Nc1nccs1 was tested, and the T/C (dose: 100.0 mg/kg/injection, schedule: Q04DX003 (ip), vehicle: saline with Tween-80) was 92 % of control, the T/C (dose: 200.0 mg/kg/injection, schedule: Q04DX003 (ip), vehicle: saline with Tween-80) was 94 % of control and the T/C (dose: 400.0 mg/kg/injection, schedule: Q04DX003 (ip), vehicle: saline with Tween-80) was 87 % of control.

For CP(=O)(c1ccccc1)c1ccccc1OCCCOCCCOc1ccccc1P(C)(=O)c1ccccc1 (stereo not given), the T/C [4] was 99 % of control, the T/C [5] was 99 % of control and the T/C [6] was 94 % of control.

For O=C1C(N2CCOCC2)=C(N2CC2)C(=O)C(N2CCOCC2)=C1N1CC1, the T/C (dose: 0.25 mg/kg/injection, schedule: Q01DX009 (ip), vehicle: saline) was 119 % of control, the T/C (dose: 0.5 mg/kg/injection, schedule: Q01DX009 (ip), vehicle: saline) was 152 % of control and the T/C (dose: 0.66 mg/kg/injection, schedule: Q01DX009 (ip), vehicle: saline) was 153 % of control. For the same molecule, the T/C (dose: 1.0 mg/kg/injection, schedule: Q01DX009 (ip), vehicle: saline) was 152 % of control and 161 % of control and the T/C (dose: 1.5 mg/kg/injection, schedule: Q01DX009 (ip), vehicle: saline) was 170 % of control.

For C(#Cc1ccncc1)c1ccncc1, the T/C [7] was 100 % of control and the T/C [8] was 98 % of control.

For O=C(Nc1ccc(Cl)c(Cl)c1)Oc1ccccc1Cl, the T/C [1] was 106 % of control, the T/C [9] was 107 % of control and the T/C [10] was 105 % of control.

For CC1=NNC(=S)NCCCN2CCN(CCCNC(=S)NN=C(C)C=NNC(=S)NCCCN3CCN(CCCNC(=S)NN=C1)CC3)CC2, the T/C (dose: 50.0 mg/kg/injection, schedule: Q01DX005 (ip), vehicle: suspension in saline) was 106 % of control, the T/C (dose: 100.0 mg/kg/injection, schedule: Q01DX005 (ip), vehicle: suspension in saline) was 113 % of control and the T/C (dose: 200.0 mg/kg/injection, schedule: Q01DX005 (ip), vehicle: suspension in saline) was 106 % of control.

In the case of O=c1[nH]ccc2sccc12, the T/C [11] is reported as 95 % of control and the T/C [12] is reported as 100 % of control.

For Cc1cc(=O)[nH]c2c1C(=O)c1c(C)cc(=O)n(C)c1C2=O, the T/C (dose: 0.5 mg/kg/injection, schedule: Q01DX009 (ip), vehicle: DMSO) was 99 % of control and 97 % of control, the T/C (dose: 1.0 mg/kg/injection, schedule: Q01DX009 (ip), vehicle: DMSO) was 90 % of control and the T/C (dose: 2.0 mg/kg/injection, schedule: Q01DX009 (ip), vehicle: DMSO) was 91 % of control. For the same molecule, the T/C (dose: 4.0 mg/kg/injection, schedule: Q01DX009 (ip), vehicle: DMSO) was 108 % of control.

For O=C(N=C(N=C(c1ccccc1)N1CCCCC1)c1ccccc1)c1ccccc1, the T/C [11] was 96 % of control, the T/C [12] was 93 % of control and the T/C (dose: 200.0 mg/kg/injection, schedule: Q01DX009 (ip), vehicle: saline with Tween-80) was 95 % of control.

In the case of CCC(c1cccc(O)c1)C(CC)c1cccc(O)c1 (stereo not given), the T/C [4] is reported as 102 % of control, the T/C [5] is reported as 102 % of control and the T/C [6] is reported as 103 % of control.

In the case of CC(=O)NC1C(Nc2ccc(S(=O)(=O)Nc3ncccn3)cc2)OC(CO)C(O)C1O (stereo not given), the T/C [13] is reported as 106 % of control, the T/C [14] is reported as 99 % of control and the T/C [15] is reported as 101 % of control.

In the case of NP(=O)(Oc1ccccc1)Oc1ccccc1, the T/C (dose: 6.23 mg/kg/injection, schedule: Q01DX009 (ip), vehicle: saline with Tween-80) is reported as 95 % of control, the T/C (dose: 12.5 mg/kg/injection, schedule: Q01DX009 (ip), vehicle: saline with Tween-80) is reported as 100 % of control and the T/C (dose: 25.0 mg/kg/injection, schedule: Q01DX009 (ip), vehicle: saline with Tween-80) is reported as 95 % of control.

In the case of C=CCSc1nnc(-c2ccc(C(C)(C)C)cc2)n1-c1cccc(C(F)(F)F)c1, the T/C [1] is reported as 100 % of control, the T/C [9] is reported as 100 % of control and the T/C [10] is reported as 94 % of control.

With CC(C)(C)C1CO1 (stereo not given) the T/C [13] was 103 % of control, the T/C [14] was 108 % of control and the T/C [15] was 110 % of control.

With CCCCOP(O)(=S)OCCCC.[Ho] the T/C (dose: 66.0 mg/kg/injection, schedule: Q01DX001 (ip), vehicle: saline with Tween-80) was 100 % of control, the T/C (dose: 100.0 mg/kg/injection, schedule: Q01DX001 (ip), vehicle: saline with Tween-80) was 98 % of control and the T/C (dose: 150.0 mg/kg/injection, schedule: Q01DX001 (ip), vehicle: saline with Tween-80) was 98 % of control. For the same molecule, the T/C (dose: 200.0 mg/kg/injection, schedule: Q01DX001 (ip), vehicle: saline with Tween-80) was 90 % of control and the T/C (dose: 400.0 mg/kg/injection, schedule: Q01DX001 (ip), vehicle: saline with Tween-80) was 90 % of control.

Nc1nnc(/C=C/c2ccc(Cl)cc2)o1 was tested, and the T/C [1] was 98 % of control, the T/C [9] was 105 % of control and the T/C [10] was 106 % of control.

In the case of BrC/C(=N\N=C(/CBr)c1ccccc1)c1ccccc1, the T/C [16] is reported as 103 % of control, the T/C (dose: 100.0 mg/kg/injection, schedule: Q01DX009 (ip), vehicle: Klucel (hydroxypropylcellulose) (HPC)) is reported as 112 % of control and the T/C (dose: 200.0 mg/kg/injection, schedule: Q01DX009 (ip), vehicle: Klucel (hydroxypropylcellulose) (HPC)) is reported as 96 % of control.

With CC(=O)[O-].O=C(N/N=C/c1ccccc1[O-])c1ccccc1.[Zn+2] the T/C [1] was 95 % of control and the T/C [9] was 106 % of control.

In the case of CNc1ccc(Cl)cc1SSc1cc(Cl)ccc1NC, the T/C (dose: 50.0 mg/kg/injection, schedule: Q01DX001 (ip), vehicle: Klucel (hydroxypropylcellulose) (HPC)) is reported as 100 % of control, the T/C (dose: 100.0 mg/kg/injection, schedule: Q01DX001 (ip), vehicle: Klucel (hydroxypropylcellulose) (HPC)) is reported as 100 % of control and the T/C (dose: 200.0 mg/kg/injection, schedule: Q01DX001 (ip), vehicle: Klucel (hydroxypropylcellulose) (HPC)) is reported as 100 % of control.

In the case of CCN(CC)C(C)(C)C(=O)/C=C/c1ccc(Cl)cc1, the T/C [2] is reported as 115 % of control and the T/C [3] is reported as 101 % of control.

With O=C1C=CC(=O)[C@H]2CC=C3OC4OC5(CCCCC5)OC4[C@H]3[C@@H]12 (stereo not given in full) the T/C [9] was 94 % of control and the T/C [10] was 97 % of control.

O=CC(NC(=O)CCCc1ccc(N(CCCl)CCCl)cc1)C(O)C(O)C(O)CO (stereo not given) was tested, and the T/C (dose: 12.5 mg/kg/injection, schedule: Q01DX009 (ip), vehicle: Klucel (hydroxypropylcellulose) (HPC)) was 204 % of control and 215 % of control, the T/C (dose: 25.0 mg/kg/injection, schedule: Q01DX009 (ip), vehicle: Klucel (hydroxypropylcellulose) (HPC)) was 211 % of control and 227 % of control and the T/C [16] was 105 % of control and 86 % of control and 89 % of control.

With CNCC(=O)Nc1ccc(C2NC(=O)Cc3ccccc32)cc1 (stereo not given) the T/C (dose: 100.0 mg/kg/injection, schedule: Q04DX002 (ip), vehicle: saline) was 104 % of control and the T/C (dose: 200.0 mg/kg/injection, schedule: Q04DX002 (ip), vehicle: saline) was 111 % of control.

With O=C(CC(c1ccncc1)C(C(=O)c1ccc(Cl)cc1)C(c1ccncc1)C(C(=O)c1ccc(Cl)cc1)C(O)c1ccncc1)c1ccc(Cl)cc1 (stereo not given) the T/C [7] was 101 % of control, the T/C [8] was 93 % of control and the T/C (dose: 200.0 mg/kg/injection, schedule: Q01DX005 (ip), vehicle: saline with Tween-80) was 93 % of control.

Source: PubChem BioAssay AID330 (DTP/NCI, 2004)
